Here are results for 1 compound from US12570994B2, “Plants having increased tolerance to herbicides” (BASF AGRO B.V., priority 2010, dated 2026).

pIC50: −log10 of the molar value.

For test [1], the target named is amino acid substituted PPO enzyme R128A, F420M (Amaranthus tuberculatus, UniProt Q0NZW9, F420M/R128A). Put plainly: biochemical.
Test [2] addresses amino acid substituted PPO enzyme L397D (Amaranthus tuberculatus, UniProt Q0NZW9, L397D). Put plainly: biochemical.
For test [3], the target named is amino acid substituted PPO enzyme L397N (Amaranthus tuberculatus, UniProt Q0NZW9, L397N). Put plainly: biochemical.
The target in test [4] is amino acid substituted PPO enzyme F420M (Amaranthus tuberculatus, UniProt Q0NZW9, F420M). As to the kind of experiment: biochemical.
The target in test [5] is amino acid substituted PPO enzyme F420V (Amaranthus tuberculatus, UniProt Q0NZW9, F420V). As to the kind of experiment: biochemical.
Test [6] deals with amino acid substituted PPO enzyme R128A (Amaranthus tuberculatus, UniProt Q0NZW9, R128A). Put plainly: biochemical.
In test [7] the target is amino acid substituted PPO enzyme dG210 (Amaranthus tuberculatus, UniProt Q0NZW9, DEL211-211, form not given). It counts as biochemical.
The target in test [8] is amino acid substituted PPO enzyme R128A, F420L (Amaranthus tuberculatus, UniProt Q0NZW9, F420L/R128A). Put plainly: biochemical.
Test [9] addresses amino acid substituted PPO enzyme F420L (Amaranthus tuberculatus, UniProt Q0NZW9, F420L). Put plainly: biochemical.
The target in test [10] is amino acid substituted PPO enzyme R128A, F420I (Amaranthus tuberculatus, UniProt Q0NZW9, F420I/R128A). As to the kind of experiment: biochemical.
In test [11] the target is amino acid substituted PPO enzyme F420I (Amaranthus tuberculatus, UniProt Q0NZW9, F420I). As to the kind of experiment: biochemical.
In test [12] the target is amino acid substituted PPO enzyme R128L (Amaranthus tuberculatus, UniProt Q0NZW9, R128L). Put plainly: biochemical.

Take `C#CCN1C(=O)C(F)(F)Oc2cc(F)c(-n3c(=O)n(C)c(=S)n(C)c3=O)cc21` [benzoxazinone 1.a.35]: the pIC50 is 8.20 in [1]; 9.57 in test [2]; 9.63 in test [3]; 9.56 in test [4]; 8.61 in [5]; 9.85 in test [6]. Also, the pIC50 in test [7] was 8.67; in test [8], 7.62; in [9], 9.00; in test [10], 7.70; in test [11] it was 9.31; in test [12] it was 9.11.

In general, pIC50 refers to the negative decadic logarithm of the IC50, by convention in mol/L. High values mean a low IC50, low ones a high IC50.
